Where no end group is shown, it is not given here.
Key:
K. pneumoniae ATCC 13883 = type: cell-based, Klebsiella pneumoniae; conditions: ATCC 13883, 24 h
Experimental: (§1) Fig. 2 Antimicrobial activity and secondary structure of computationally designed peptides. a, Structure prediction of the synthesized peptides. b, Heatmap of the antimicrobial activities of the peptides against 11 clinically relevant pathogens, including four strains resistant to conventional antibiotics. Briefly, 10^6 bacterial cells and serially diluted peptides (1-64 μmol l^−1) were incubated at 37 °C. One day after treatment, the optical density at 600 nm was measured in a microplate reader to evaluate bacterial growth in the presence of the peptides. MIC values in the heatmap are the mode of the replicates in each condition. c–f, Ternary plots showing the percentage of secondary structure for each peptide (at 50 μmol l^−1) in four different solvents: water (c), 60% TFE in water (d), 10 mmol l^−1 SDS in water (e) and 50% methanol (MeOH) in water (f). Secondary structure fractions were calculated using the BeStSel server. […] An error of one column cannot be fully excluded. / Panel b: AT1, AT2, AT3 and all blank cells print no number and are left out.
(§2) In this study, we used the following pathogenic bacterial strains: A. baumannii ATCC 19606, E. coli AIC221 (E. coli MG1655 phnE_2::FRT (control strain for AIC222)) and E. coli AIC222 (E. coli MG1655 pmrA53 phnE_2::FRT (polymyxin resistant; colistin-resistant strain)), Klebsiella pneumoniae ATCC 13883, Pseudomonas aeruginosa PAO1, P. aeruginosa PA14 and Staphylococcus aureus ATCC 12600. All pathogens were grown in Luria–Bertani (LB) broth and on LB agar. Pseudomonas isolation (P. aeruginosa strains) agar plates were exclusively used in the case of Pseudomonas species. In all the experiments, bacteria were inoculated from one isolated colony and grown overnight (16 h) in liquid medium at 37 °C. On the following day, inocula were diluted 1:100 in fresh media and incubated at 37 °C to mid-logarithmic phase.
(§3) Broth microdilution assays[64] were conducted to establish the MIC for each peptide. Peptides were added to untreated polystyrene 96-well microtiter plates and serially diluted twofold in sterile water, ranging from 1 to 64 μmol l^−1. A bacterial inoculum at a concentration of 10^6 CFU ml^−1 in LB medium was then mixed in a 1:1 ratio with the peptide solution. […] Each assay was performed in three independent replicates.

A. baumannii ATCC 19606 = type: cell-based, Acinetobacter baumannii; conditions: ATCC 19606, 24 h
Experimental: as §1, §2, §3

[1] = system: E. faecium ATCC 700221 - VRE; type: cell-based; conditions: ATCC 700221, 24 h
Experimental: as §1, §3

[2] = system: S. aureus ATCC BAA-1556 - MRSA; type: cell-based; conditions: ATCC BAA-1556, 24 h
Experimental: as §1, §3

S. aureus ATCC 12600 = type: cell-based, Staphylococcus aureus; conditions: ATCC 12600, 24 h
Experimental: as §1, with “out. […]” for “out.”

HEK293T cells = assay: Cytotoxicity, MTT assay; type: cell-based, human; conditions: 24 h
Experimental: Fig. 3 Mechanism of action and cytotoxic activity of designed peptides. a, To assess whether the peptides act on bacterial membranes, all active peptides against A. baumannii American Type Culture Collection (ATCC) 19606 were subjected to outer-membrane permeabilization, and peptides active against A. baumannii ATCC 19606 and vancomycin-resistant E. faecalis ATCC 700802 were tested in cytoplasmic-membrane depolarization assays. b, The fluorescent probe NPN was used to assess membrane permeabilization induced by the tested peptides. c,d, The fluorescent probe DiSC3-5 was used to evaluate membrane depolarization caused by the designed peptides in A. baumannii ATCC 19606 (c) and vancomycin-resistant E. faecalis ATCC 700802 (d). […] All experiments were performed in three independent replicates. Panel a created with BioRender.com. Source data TEXT PRINTED IN THE PICTURE: (e) AT1: CC50 (μmol l^-1), HEK293T cells: 2,758 | (e) AT2: CC50 (μmol l^-1), HEK293T cells: 2 × 10^37 | (e) AT3: CC50 (μmol l^-1), HEK293T cells: 269 | (e) AT4: CC50 (μmol l^-1), HEK293T cells: 3,015 | (e) AT5: CC50 (μmol l^-1), HEK293T cells: 6 × 10^41 | (e) NE1: CC50 (μmol l^-1), HEK293T cells: 6 × 10^33 | (e) NE2: CC50 (μmol l^-1), HEK293T cells: 507 | (e) NE3: CC50 (μmol l^-1), HEK293T cells: 655 | (e) NE4: CC50 (μmol l^-1), HEK293T cells: 2 × 10^32 | (e) NG1: CC50 (μmol l^-1), HEK293T cells: 351 | (e) NG2: CC50 (μmol l^-1), HEK293T cells: 1 × 10^35 | (e) NG3: CC50 (μmol l^-1), HEK293T cells: 2 × 10^46 DOUBTS OF THE COPYIST ABOUT THIS PICTURE: AT2, CC50: small exponent, 37 or 57 / AT5, CC50: small exponent, 41 uncertain / NE1, CC50: small exponent, 33 or 38 / NE4, CC50: small exponent, 32 or 52 / NG2, CC50: small exponent, 35 or 36 / NG3, CC50: small exponent, 46 or 48 […]
HEK293T cells were obtained from the ATCC (CRL-3216). The cells were cultured in high-glucose DMEM supplemented with 1% penicillin and streptomycin (antibiotics) and 10% fetal bovine serum and grown at 37 °C in a humidified atmosphere containing 5% CO2.
One day before the experiment, an aliquot of 100 μl of the cells at 50,000 cells ml^−1 was seeded into each well of the cell-treated 96-well plates used in the experiment (that is, 5,000 cells per well)[45]. The attached HEK293T cells were then exposed to increasing concentrations of the peptides (4–64 μmol l^−1) for 24 h. After the incubation period, we performed the (3-(4,5-dimethylthiazol-2-yl)-2,5-diphenyltetrazolium bromide) tetrazolium reduction assay (MTT assay)[45]. […] The resulting salts were then resuspended in hydrochloric acid (0.04 mol l^−1) in anhydrous isopropanol and quantified by spectrophotometric measurements of absorbance at 570 nm. […]

Sequence FRLAAVLHFHIH [AT4] has an MIC (K. pneumoniae ATCC 13883) of 8 µM, an MIC (A. baumannii ATCC 19606) of 32 µM and an MIC [1] of 32 µM. For the same sequence, the MIC [2] was 16 µM, the MIC (S. aureus ATCC 12600) was 64 µM and the “CC50, cytotoxic concentration leading to 50% cell lysis” value (HEK293T cells) was 3.015 mM.
